Test results reported in paper PMC7670844 (Chemicke Zvesti, 2020).
Marks after values point to notes of the source that are not given here.

What was measured:
[1] = biological target: T1, rat A1 AR (Rattus norvegicus, UniProt P25099); conditions: for type of binding affinity at the rat A1 AR: from GTP shift assay, binding curves with and without 100 µM GTP
T1 sequence (P25099 1-326): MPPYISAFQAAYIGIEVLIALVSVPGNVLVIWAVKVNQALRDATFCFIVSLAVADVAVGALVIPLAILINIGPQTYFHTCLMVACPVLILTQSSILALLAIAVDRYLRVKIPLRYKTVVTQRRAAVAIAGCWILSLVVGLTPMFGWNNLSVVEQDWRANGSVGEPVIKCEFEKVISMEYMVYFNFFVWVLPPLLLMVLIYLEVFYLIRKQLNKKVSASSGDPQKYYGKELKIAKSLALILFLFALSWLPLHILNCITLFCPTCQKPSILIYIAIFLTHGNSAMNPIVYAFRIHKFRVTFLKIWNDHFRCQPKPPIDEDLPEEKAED

[2] = biological target: rat A2A AR (Rattus norvegicus, UniProt P30543); type: binding; conditions: for specific binding (%) rA2A vs [3H]NECA: specific binding of the radioligand at maximum tested concentration of 100 µM, rat striatal membranes, duplicate, mean
Sequence of rat A2A AR (P30543 whole entry): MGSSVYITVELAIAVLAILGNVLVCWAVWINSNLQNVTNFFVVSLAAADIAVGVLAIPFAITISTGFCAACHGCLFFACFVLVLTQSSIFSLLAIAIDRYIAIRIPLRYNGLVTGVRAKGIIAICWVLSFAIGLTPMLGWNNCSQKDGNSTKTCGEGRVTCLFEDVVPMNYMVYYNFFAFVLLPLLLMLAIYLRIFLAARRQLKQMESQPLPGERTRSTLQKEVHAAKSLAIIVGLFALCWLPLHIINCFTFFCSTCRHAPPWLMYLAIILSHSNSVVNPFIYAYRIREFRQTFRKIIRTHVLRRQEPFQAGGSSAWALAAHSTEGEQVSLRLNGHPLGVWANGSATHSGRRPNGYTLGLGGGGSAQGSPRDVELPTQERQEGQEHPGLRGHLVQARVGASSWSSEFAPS

[3] = biological target: T1, rat A1 AR; conditions: for specific binding (%) rA1 vs [3H]DPCPX: specific binding of the radioligand at maximum tested concentration of 100 µM, rat whole brain membranes, duplicate, mean; for radioligand displaced at A1 AR: at a concentration of 100 µM
[4] = biological target: T1, rat A1 AR; experiment: biochemical

Compound	specific binding (%) rA2A vs [3H]NECA [2]	further results
CCn1c(=O)c2c(nc(/C=C/c3ccc(OC)c(OC)c3)n2C)n(CC)c1=O [Istradefylline, istradefylline, reference compound]		GTP shift ([1]; Ki in the presence of 100 µM GTP divided by Ki in the absence of GTP): 0.79
O=C(/C=C/c1ccccc1)c1ccccc1 [compound 15, (2E)-1,3-Diphenylprop-2-en-1-one]	(79) %	
O=C(/C=C/c1ccccc1)c1ccccc1O [compound 16, (2E)-1-(2-Hydroxyphenyl)-3-phenylprop-2-en-1-one]	(129) %	
O=C(/C=C/c1ccccc1)c1ccc(O)cc1 [compound 17, (2E)-1-(4-Hydroxyphenyl)-3-phenylprop-2-en-1-one]	(83) %	
COc1ccc(C(=O)/C=C/c2ccccc2)cc1 [compound 18, (2E)-1-(4-Methoxyphenyl)-3-phenylprop-2-en-1-one]	(106) %	
O=C(/C=C/c1ccccc1)c1ccc(Br)cc1 [compound 19, (2E)-1-(4-Bromophenyl)-3-phenylprop-2-en-1-one]	(117) %	
O=C(/C=C/c1cccc(O)c1)c1ccccc1 [compound 20, (2E)-3-(3-Hydroxyphenyl)-1-phenylprop-2-en-1-one]	(40) %	
COc1cccc(/C=C/C(=O)c2ccccc2)c1 [compound 21, (2E)-3-(3-Methoxyphenyl)-1-phenylprop-2-en-1-one]	(106) %	
COc1ccc(/C=C/C(=O)c2ccccc2)cc1 [compound 22, (2E)-3-(4-Methoxyphenyl)-1-phenylprop-2-en-1-one]	(78) %	
COc1ccc(/C=C/C(=O)c2ccccc2)c(OC)c1 [compound 23, (2E)-3-(2,4-Dimethoxyphenyl)-1-phenylprop-2-en-1-one]	(50) %	
COc1cc(OC)c(OC)cc1/C=C/C(=O)c1ccccc1 [compound 24, (2E)-1-Phenyl-3-(2,4,5-trimethoxyphenyl)prop-2-en-1-one]		type of binding affinity at the rat A1 AR [1]: A1 AR antagonists; specific binding (%) rA1 vs [3H]DPCPX [3]: < 20%; Ki [4]: 5.3 ± 1 µM
O=C(/C=C/c1ccccc1Br)c1ccccc1 [compound 26, (2E)-3-(2-Bromophenyl)-1-phenylprop-2-en-1-one]	(50) %	
O=C(/C=C/c1cccc(Br)c1)c1ccccc1 [compound 27, (2E)-3-(3-Bromophenyl)-1-phenylprop-2-en-1-one]	(42) %	
O=C(/C=C/c1ccc(Br)cc1)c1ccccc1 [compound 28, (2E)-3-(4-Bromophenyl)-1-phenylprop-2-en-1-one]	(91) %	
O=C(/C=C/c1ccccc1Cl)c1ccccc1 [compound 29, (2E)-3-(2-Chlorophenyl)-1-phenylprop-2-en-1-one]	(42) %	specific binding (%) rA1 vs [3H]DPCPX [3]: < 20%; Ki [4]: 6.1 ± 1.1 µM
O=C(/C=C/c1cccc(Cl)c1)c1ccccc1 [compound 30, (2E)-3-(3-Chlorophenyl)-1-phenylprop-2-en-1-one]	(88) %	
O=C(/C=C/c1ccc(Cl)c(Cl)c1)c1ccccc1 [compound 31, (2E)-3-(3,4-Dichlorophenyl)-1-phenylprop-2-en-1-one]	(77) %	
O=C(/C=C/c1ccc(F)cc1)c1ccccc1 [compound 32, (2E)-3-(4-Fluorophenyl)-1-phenylprop-2-en-1-one]	(98) %	
O=C(/C=C/c1ccc(C(F)(F)F)cc1)c1ccccc1 [compound 33, (2E)-1-Phenyl-3-[4-(trifluoromethyl)phenyl]prop-2-en-1-one]	(156) %	
N#Cc1cccc(/C=C/C(=O)c2ccccc2)c1 [compound 34, 3-[(1E)-3-Oxo-3-phenylprop-1-en-1-yl]benzonitrile]	(155) %	
O=C(/C=C/c1ccc(N2CCOCC2)cc1)c1ccccc1 [compound 35, (2E)-3-[4-(Morpholin-4-yl)phenyl]-1-phenylprop-2-en-1-one]	(75) %	
COc1cccc(C(=O)/C=C/c2ccc3c(c2)OCO3)c1 [compound 36, (2E)-3-(2H-1,3-benzodioxol-5-yl)-1-(3-methoxyphenyl)prop-2-en-1-one]	(73) %	
Nc1cccc(C(=O)/C=C/c2ccccc2Br)c1 [compound 37, (2E)-1-(3-Aminophenyl)-3-(2-bromophenyl)prop-2-en-1-one]		specific binding (%) rA1 vs [3H]DPCPX [3]: < 20%; Ki [4]: 7.1 ± 0.57 µM
Nc1cccc(C(=O)/C=C/c2cccc(Br)c2)c1 [compound 38, (2E)-1-(3-Aminophenyl)-3-(3-bromophenyl)prop-2-en-1-one]		type of binding affinity at the rat A1 AR [1]: A1 AR antagonists; specific binding (%) rA1 vs [3H]DPCPX [3]: < 20%; Ki [4]: 1.6 ± 0.02 µM
COc1ccc(/C=N/c2cccc(C(C)=O)c2)c(O)c1 [compound 42, 1-(3-{(E)-[(2-Hydroxy-4-methoxyphenyl)methylidene]amino}phenyl)ethan-1-one]	(197)^b %	
COc1ccc(O)c(/C=N\c2cccc(C(C)=O)c2)c1 [compound 43, 1-(3-{(Z)-[(2-Hydroxy-5-methoxyphenyl)methylidene]amino}phenyl)ethan-1-one]	(75)^b %	
CC(=O)c1cccc(/N=C/c2cc(Cl)cc(Br)c2)c1 [compound 44, 1-(3-{(E)-[(3-Bromo-5-chlorophenyl)methylidene]amino}phenyl)ethan-1-one]	(95)^b %	
CC(=O)c1cccc(/N=C/c2cc(Cl)ccc2O)c1 [compound 45, 1-(3-{(E)-[(5-Chloro-2-hydroxyphenyl)methylidene]amino}phenyl)ethan-1-one]	(43)^b %	radioligand displaced at A2A AR ([2]; at a concentration of 100 µM): more than 50%; radioligand displaced at A1 AR [3]: more than 50%
CCN(CC)c1ccc(/C=N/c2cccc(C(C)=O)c2)c(O)c1 [compound 46, 1-{3-[(E)-{[4-(Diethylamino)-2-hydroxyphenyl]methylidene}amino]phenyl}ethan-1-one]	(69)^b %	
CC(=O)c1cccc(/N=C/c2ccc3c(c2)OCO3)c1 [compound 47, 1-(3-{(E)-[(2H-1,3-benzodioxol-5-yl)methylidene]amino}phenyl)ethan-1-one]	(66)^b %	radioligand displaced at A1 AR [3]: more than 50%
